# Source: patent US9926293B2, “Multivalent RAS binding compounds” (THE TRUSTEES OF COLUMBIA UNIVERSITY IN THE CITY OF NEW YORK, priority 2014, dated 2018)
# How the values were obtained:
# [1] = In vivo pharmacokinetic analysis; parameters: species or system male C57 adult mice; conditions: male, C57, mouse, 20 mg/kg, plasma over 12 hours
# Protocol: In Vivo Pharmacokinetic Analysis
# The dose formulation was prepared freshly in the morning of dosing day. A total of 42 male C57 adult mice, each approximately 25 grams in body weight, were administered at 20 mg/kg dose via a single IV bolus injection or a single oral gavage. Blood samples (approximately 400 μL) were collected from three mice per time point via terminal brachial bleed at pre-dose and 30 minutes, 1 hour, 2 hours, 4 hours, 8 hours and 12 hours post-dose. Blood samples were placed into tubes containing K2 EDTA anti-coagulant, and centrifuged at about 2,100 g (rcf) for 10 minutes at 4° C. to separate plasma. Following centrifugation, the resulting plasma was transferred to clean tubes and stored frozen at −80° C. The mouse plasma samples (50 μL) were aliquoted, spiked with internal standard (250 ng/mL tolbutamide), and then extracted with protein precipitation. The supernatant of each sample was diluted and injected into a LC-MS/MS system. The data acquisition and processing were performed using a Sciex API 5500 mass spectrometer with Analyst 1.6.2 software. The standard curve range for the plasma samples was analyzed using a calibration curve of 0.5-5000 ng/mL. The pharmacokinetic (PK) analysis and interpretation of the results were conducted using Winnonlin Phoenix Software.
# [2] = tested on: primary T-ALL cells with wild-type NRAS; assay: Viability of patient-derived T-ALL samples cultured in vitro, wild-type NRAS; type: cell-based, human; conditions: four samples, 5 μM, 72 hours
# Protocol: Primary Cell Co-Culture and In Vitro Cell Viability Assays.
# Cells were harvested 72 hours after treatment and analyzed cell viability using the BD cell viability kit with liquid counting beads (BD Bioscience) gating out stroma cells (GFP+), dead cells and particles (PI+). We acquired data using a FACSCanto II flowcytometer (BD Bioscience) and analyzed it using FlowJo software (Tree Star, Inc.). Viability data is represented as % relative to vehicle treatment.
# [3] = tested on: RAS-RAF and RAS-PI3K interaction in BJeLR cells; assay: Immunoprecipitation with HRAS antibody, blot for cRAF and PI3Kgamma; type: cell-based; conditions: 10% FBS
# Protocol: BJeLR cells were seeded 16 hours prior to use in 10% FBS in DMEM. […] After 6 hours cells were washed twice with ice cold buffer (25 mM tris, 100 mM NaCl, 1 mM TCEP, 5 mM MgCl2, 0.1% tween-20 and 1 protease inhibitor/25 mL). Cells were scrapped, pelleted at 13,000 rpm for 10 minutes at 4° C., then passed through a 26 gauge needle several times. The solution was spun down a second time at 13,000 rpm for 15 minutes at 4° C., to remove unlysed cells and debris. HRAS antibody (Santa cruz, SC-520) was then added to the lysate (1:100) and the solution was rocked at 4° C. for 16 hours. Protein A agrose beads were then added and the solution was rotated at 4° C. for an additional 6 hours. The solutions were spun down at 1500×g for 2 minutes and the supernatant was removed by syringe. The beads were washed twice by this process with buffer, then resuspended in 2.5×SDS.
# KRAS^G12D D38A = biological target: T1, KRAS^G12D D38A (Homo sapiens, UniProt P01116, D38A/G12D); assay: Microscale thermophoresis on binding-site mutant KRAS^G12D D38A; conditions: for Kd: MST
# T1 construct: His6 (N); made in house
# Protocol: Mutagenesis of the KRAS^G12D plasmid was performed using a QuikChange XL site-directed mutagenesis kit from Agilent technologies, according to the manufacturer's protocol. Primers were designed using the Agilent QuikChange Primer Design application and purchased from Integrated DNA Technologies. KRAS^G12D D38A forward primer 5′ ATATGATCCAACAATAGAGGCTTCCTACAGGAAGCAAGTAG 3′ (SEQ ID NO: 66), KRAS^G12D D38A reverse primer 5′ CTACTTGCTTCCTGTAGGAAGCCTCTATTGTTGGATCATAT 3′ (SEQ ID NO: 67), KRAS^G12D I36N forward primer 5′ CATTTTGTGGACGAATATGATCCAACAAATGAGGATTCCTACAGG 3′ (SEQ ID NO: 68), KRAS^G12D I36N reverse primer 5′ CCTGTAGGAATCCTCATTTGTTGGATCATATTCGTCCACAAAATG 3′ (SEQ ID NO: 69). DNA sequencing was performed to confirm the correct amino acid sequence of the construct (GeneWiz, Inc.).
# KRAS^G12D (250 μM) in 25 mM HEPES, 100 mM sodium chloride, 2 mM TCEP with 20 mM EDTA and 1 mM GppNHp was shaken at 220 rpm at 30° C. to remove the endogenous nucleotide, The solution was placed on ice for 2 minutes prior to the addition of 65 mM MgCl2. After an additional 10 minutes incubation on ice, 200 uL of a 10 uM solution of KRAS^G12D was combined with 200 uL of a 20 uM solution of NT-647-NHS-ester dye (from a 652.4 μM stock). The protein/dye mixture was rotated at 4° C. for 30 minutes, before being separated from the excess dye and buffer exchanged into 25 mM Tris, 100 mM sodium chloride, 2 mM TCEP, and 5 mM MgCl2 via a nap-5 column. The test compounds were arrayed across a 16-point dilution series consisting of 1.5% DMSO with 25 mM Tris, 100 mM NaCl, 2 mM TCEP, 5 mM MgCl2 and 0.05% tween-20. Thermophoretic movement of the fluorescently labeled protein with the inhibitors was performed using a Monolith NT.115 (Nanotemper Technologies). RALA and RHOA were purchased commercially from Abcam (RALA CN:ab102555, RHOA CN:ab101594).
# A set of 45 of the closest matches (ranging from 0.85-0.97 Tanimoto coefficient) were synthesized (based on Scheme 2 with appropriate modifications) and tested for their ability to bind to KRAS^G12D by differential scanning fluorimetry.
# T1 sequence (P01116 1-169 isoform P01116-2 G12D/D38A): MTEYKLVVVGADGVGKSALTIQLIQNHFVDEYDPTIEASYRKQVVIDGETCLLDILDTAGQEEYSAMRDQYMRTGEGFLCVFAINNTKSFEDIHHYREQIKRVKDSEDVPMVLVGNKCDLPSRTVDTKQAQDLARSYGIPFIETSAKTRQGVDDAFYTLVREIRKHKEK
compound,measurement,setting,value
"NC1(C(=O)NCCCn2cc(-c3ccc(OC(F)(F)F)cc3)c3cc(CN4CCN(Cc5c(Cl)cccc5Cl)CC4)ccc32)CCNCC1 [Compound 31MEW44, 4-amino-N-(3-(5-((4-(2,6-dichlorobenzyl)piperazin-1-yl)methyl)-3-(4-(trifluoromethoxy)phenyl)-1H-indol-1-yl)propyl)piperidine-4-carboxamide]",half-life,"[1]; intravenous delivery, no elimination",> 12 h
same,half-life,[1]; oral delivery,3.1 h
same,viability,[2],no observed decrease in viability
same,co-immunoprecipitated cRAF and PI3K,[3],decreased levels of co-immunoprecipitated cRAF and PI3K
same,loss in binding affinity,KRAS^G12D D38A; I36N and D38A mutants vs KRAS^G12D,3.5 to 21 fold
same,Kd,"KRAS^G12D D38A; 31MEW44, FIG. 14H",33 µM
same,Kd,"KRAS^G12D D38A; 31MEW44, first experiment",1.9 µM
same,loss in binding affinity,KRAS^G12D D38A; binding-site mutants D38A and I36N,5-10 fold
